Measurements published in PubChem BioAssay (NCI).
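These data come from cells grown in 96-well plates and exposed to compound for 48 hours at five concentrations. GI50 is the concentration that inhibits growth by half. The concentration for full growth arrest is given as TGI.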

Assays:
Test in all cases: inhibition of tumour cell growth, NCI panel, 48 h
[1] = test system: 786-0 renal
[2] = test system: A498 renal
[3] = test system: A549 NSCLC
[4] = test system: ACHN renal
[5] = test system: CAKI-1 renal
[6] = test system: CCRF-CEM leukemia
[7] = test system: COLO 205 colon
[8] = test system: DLD-1 colon
[9] = test system: DMS 114 small cell lung
[10] = test system: EKVX NSCLC
[11] = test system: HCC-2998 colon
[12] = test system: HCT-116 colon
[13] = test system: HL-60(TB) leukemia
[14] = test system: HOP-62 NSCLC
[15] = test system: HOP-92 NSCLC
[16] = test system: HT29 colon
[17] = test system: IGROV1 ovarian
[18] = test system: K-562 leukemia
[19] = test system: KM12 colon
[20] = test system: KM20L2 colon
[21] = test system: LOX IMVI melanoma
[22] = test system: LXFL 529 NSCLC
[23] = test system: M14 melanoma
[24] = test system: M19-MEL melanoma
[25] = test system: MALME-3M melanoma
[26] = test system: MOLT-4 leukemia
[27] = test system: NCI-H23 lung
[28] = test system: NCI-H460 lung
[29] = test system: NCI-H522 lung
[30] = test system: OVCAR-3 ovarian
[31] = test system: OVCAR-4 ovarian
[32] = test system: OVCAR-5 ovarian
[33] = test system: OVCAR-8 ovarian
[34] = test system: RPMI-8226 leukemia
[35] = test system: RXF 393 renal
[36] = test system: RXF-631 renal
[37] = test system: SF-268 CNS
[38] = test system: SF-295 CNS
[39] = test system: SF-539 CNS
[40] = test system: SK-MEL-2 melanoma
[41] = test system: SK-MEL-28 melanoma
[42] = test system: SK-MEL-5 melanoma
[43] = test system: SK-OV-3 ovarian
[44] = test system: SN12C renal
[45] = test system: SNB-19 CNS
[46] = test system: SNB-75 CNS
[47] = test system: SW-620 colon
[48] = test system: TK-10 renal
[49] = test system: U251 CNS
[50] = test system: UACC-62 melanoma
[51] = test system: UO-31 renal
[52] = test system: DMS 273 small cell lung
[53] = test system: HCT-15 colon
[54] = test system: HOP-18 NSCLC
[55] = test system: NCI-H226 lung
[56] = test system: SNB-78 CNS
[57] = test system: SR leukemia
[58] = test system: UACC-257 melanoma
[59] = test system: XF 498 CNS

Structure (SMILES): CC(C)(c1ccc(Oc2ccc(C#N)c(C#N)c2)cc1)c1ccc(Oc2ccc(C#N)c(C#N)c2)cc1
- GI50 [1]: > 100 µM
- TGI [1]: > 100 µM
- GI50 [2]: > 100 µM
- TGI [2]: > 100 µM
- GI50 [3]: > 100 µM
- TGI [3]: > 100 µM
- GI50 [4]: > 100 µM
- TGI [4]: > 100 µM
- GI50 [5]: > 100 µM
- TGI [5]: > 100 µM
- GI50 [6]: > 100 µM
- TGI [6]: > 100 µM
- GI50 [7]: > 100 µM
- TGI [7]: > 100 µM
- GI50 [8]: > 100 µM
- TGI [8]: > 100 µM
- GI50 [9]: > 100 µM
- TGI [9]: > 100 µM
- GI50 [10]: > 100 µM
- TGI [10]: > 100 µM
- GI50 [11]: > 100 µM
- TGI [11]: > 100 µM
- GI50 [12]: > 100 µM
- TGI [12]: > 100 µM
- GI50 [13]: > 100 µM
- TGI [13]: > 100 µM
- GI50 [14]: > 100 µM
- TGI [14]: > 100 µM
- GI50 [15]: > 100 µM
- TGI [15]: > 100 µM
- GI50 [16]: > 100 µM
- TGI [16]: > 100 µM
- GI50 [17]: > 100 µM
- TGI [17]: > 100 µM
- GI50 [18]: > 100 µM
- TGI [18]: > 100 µM
- GI50 [19]: > 100 µM
- TGI [19]: > 100 µM
- GI50 [20]: > 100 µM
- TGI [20]: > 100 µM
- GI50 [21]: > 100 µM
- TGI [21]: > 100 µM
- GI50 [22]: > 100 µM
- TGI [22]: > 100 µM
- GI50 [23]: > 100 µM
- TGI [23]: > 100 µM
- GI50 [24]: > 100 µM
- TGI [24]: > 100 µM
- GI50 [25]: > 100 µM
- TGI [25]: > 100 µM
- GI50 [26]: > 100 µM
- TGI [26]: > 100 µM
- GI50 [27]: > 100 µM
- TGI [27]: > 100 µM
- GI50 [28]: > 100 µM
- TGI [28]: > 100 µM
- GI50 [29]: > 100 µM
- TGI [29]: > 100 µM
- GI50 [30]: > 100 µM
- TGI [30]: > 100 µM
- GI50 [31]: > 100 µM
- TGI [31]: > 100 µM
- GI50 [32]: > 100 µM
- TGI [32]: > 100 µM
- GI50 [33]: > 100 µM
- TGI [33]: > 100 µM
- GI50 [34]: > 100 µM
- TGI [34]: > 100 µM
- GI50 [35]: > 100 µM
- TGI [35]: > 100 µM
- GI50 [36]: > 100 µM
- TGI [36]: > 100 µM
- GI50 [37]: > 100 µM
- TGI [37]: > 100 µM
- GI50 [38]: > 100 µM
- TGI [38]: > 100 µM
- GI50 [39]: > 100 µM
- TGI [39]: > 100 µM
- GI50 [40]: > 100 µM
- TGI [40]: > 100 µM
- GI50 [41]: > 100 µM
- TGI [41]: > 100 µM
- GI50 [42]: > 100 µM
- TGI [42]: > 100 µM
- GI50 [43]: > 100 µM
- TGI [43]: > 100 µM
- GI50 [44]: > 100 µM
- TGI [44]: > 100 µM
- GI50 [45]: > 100 µM
- TGI [45]: > 100 µM
- TGI [46]: 89.2 µM
- TGI [47]: > 100 µM
- GI50 [48]: > 100 µM
- TGI [48]: > 100 µM
- GI50 [49]: > 100 µM
- TGI [49]: > 100 µM
- GI50 [50]: > 100 µM
- TGI [50]: > 100 µM
- TGI [51]: > 100 µM

Structure (SMILES): COC(=O)[C@@]12OC[C@]34C([C@@H](O)C1O)[C@@]1(C)CC(=O)C(O)=C(C)C1C[C@H]3OC(=O)[C@H](OC(=O)/C=C(/c1ccccc1)C(F)(F)F)[C@H]42 (stereo partly drawn)
- TGI [1]: > 25 µM
- TGI [2]: 8.45 µM
- TGI [3]: 20.2 µM
- TGI [4]: 17.5 µM
- TGI [5]: > 25 µM
- TGI [6]: > 25 µM
- TGI [7]: 21.1 µM
- TGI [8]: > 25 µM
- TGI [9]: 17 µM
- TGI [52]: 4.87 µM
- TGI [10]: > 25 µM
- TGI [11]: 8.04 µM
- TGI [12]: 12.3 µM
- TGI [53]: > 25 µM
- TGI [13]: 1.41 µM
- TGI [54]: > 25 µM
- TGI [14]: > 25 µM
- TGI [15]: 17.1 µM
- TGI [16]: 15 µM
- TGI [17]: 11.5 µM
- TGI [18]: > 25 µM
- TGI [19]: > 25 µM
- TGI [20]: 14 µM
- TGI [22]: 15.3 µM
- TGI [23]: 8.48 µM
- TGI [24]: 11 µM
- TGI [25]: 5.71 µM
- TGI [26]: 13.8 µM
- TGI [55]: 11.7 µM
- TGI [27]: 6.73 µM
- TGI [28]: 6.71 µM
- TGI [29]: 13.7 µM
- TGI [31]: > 25 µM
- TGI [32]: > 25 µM
- TGI [33]: > 25 µM
- TGI [35]: 17.5 µM
- TGI [37]: > 25 µM
- TGI [38]: 12.7 µM
- TGI [39]: 3.75 µM
- TGI [40]: > 25 µM
- TGI [41]: 15.9 µM
- TGI [42]: 13.4 µM
- TGI [43]: > 25 µM
- TGI [44]: > 25 µM
- TGI [45]: 14.2 µM
- TGI [46]: 18.6 µM
- TGI [56]: > 25 µM
- TGI [57]: 2.28 µM
- TGI [48]: > 25 µM
- TGI [49]: > 25 µM
- TGI [58]: > 25 µM
- TGI [50]: 7.31 µM
- TGI [51]: > 25 µM
- TGI [59]: 10.6 µM

Structure (SMILES): COc1ccc(-c2nnc(-c3c(C)n(C)n(-c4ccccc4)c3=O)o2)cc1
- TGI [1]: > 100 µM
- TGI [2]: > 100 µM
- TGI [3]: > 100 µM
- TGI [4]: > 100 µM
- TGI [6]: > 100 µM
- TGI [7]: > 100 µM
- TGI [8]: > 100 µM
- TGI [9]: > 100 µM
- TGI [52]: > 100 µM
- TGI [10]: > 100 µM
- TGI [11]: > 100 µM
- TGI [12]: > 100 µM
- TGI [53]: > 100 µM
- TGI [13]: > 100 µM
- TGI [54]: > 100 µM
- TGI [14]: > 100 µM
- TGI [15]: > 100 µM
- TGI [16]: > 100 µM
- TGI [17]: > 100 µM
- TGI [18]: > 100 µM
- TGI [19]: > 100 µM
- TGI [20]: > 100 µM
- TGI [21]: > 100 µM
- TGI [22]: > 100 µM
- TGI [23]: > 100 µM
- TGI [24]: > 100 µM
- TGI [25]: > 100 µM
- TGI [26]: > 100 µM
- TGI [55]: > 100 µM
- TGI [27]: > 100 µM
- TGI [28]: > 100 µM
- TGI [29]: > 100 µM
- TGI [30]: > 100 µM
- TGI [31]: > 100 µM
- TGI [33]: > 100 µM
- TGI [34]: > 100 µM
- TGI [35]: > 100 µM
- TGI [37]: > 100 µM
- TGI [38]: > 100 µM
- TGI [39]: > 100 µM
- TGI [40]: > 100 µM
- TGI [41]: > 100 µM
- TGI [43]: > 100 µM
- TGI [44]: > 100 µM
- TGI [45]: > 100 µM
- TGI [46]: > 100 µM
- TGI [56]: > 100 µM
- TGI [57]: > 100 µM
- TGI [47]: > 100 µM
- TGI [48]: > 100 µM
- TGI [49]: > 100 µM
- TGI [58]: > 100 µM
- TGI [50]: > 100 µM
- TGI [51]: > 100 µM
- TGI [59]: > 100 µM
